In patent US12492193B2, “Pyrazole derivatives for the treatment of cystic fibrosis” (Fondazione Istituto Italiano Di Tecnologia, priority 2017, dated 2025) one finds EC50 data, which are given here for 32 molecules.

Each structure is given as a SMILES string.

For this assay, the target named is T1, mutant CFTR (Homo sapiens, UniProt P13569, DEL508-508).
T1 construct: expressed in transfected cells
T1 sequence (P13569 with tags, fused parts or gaps DEL508-508): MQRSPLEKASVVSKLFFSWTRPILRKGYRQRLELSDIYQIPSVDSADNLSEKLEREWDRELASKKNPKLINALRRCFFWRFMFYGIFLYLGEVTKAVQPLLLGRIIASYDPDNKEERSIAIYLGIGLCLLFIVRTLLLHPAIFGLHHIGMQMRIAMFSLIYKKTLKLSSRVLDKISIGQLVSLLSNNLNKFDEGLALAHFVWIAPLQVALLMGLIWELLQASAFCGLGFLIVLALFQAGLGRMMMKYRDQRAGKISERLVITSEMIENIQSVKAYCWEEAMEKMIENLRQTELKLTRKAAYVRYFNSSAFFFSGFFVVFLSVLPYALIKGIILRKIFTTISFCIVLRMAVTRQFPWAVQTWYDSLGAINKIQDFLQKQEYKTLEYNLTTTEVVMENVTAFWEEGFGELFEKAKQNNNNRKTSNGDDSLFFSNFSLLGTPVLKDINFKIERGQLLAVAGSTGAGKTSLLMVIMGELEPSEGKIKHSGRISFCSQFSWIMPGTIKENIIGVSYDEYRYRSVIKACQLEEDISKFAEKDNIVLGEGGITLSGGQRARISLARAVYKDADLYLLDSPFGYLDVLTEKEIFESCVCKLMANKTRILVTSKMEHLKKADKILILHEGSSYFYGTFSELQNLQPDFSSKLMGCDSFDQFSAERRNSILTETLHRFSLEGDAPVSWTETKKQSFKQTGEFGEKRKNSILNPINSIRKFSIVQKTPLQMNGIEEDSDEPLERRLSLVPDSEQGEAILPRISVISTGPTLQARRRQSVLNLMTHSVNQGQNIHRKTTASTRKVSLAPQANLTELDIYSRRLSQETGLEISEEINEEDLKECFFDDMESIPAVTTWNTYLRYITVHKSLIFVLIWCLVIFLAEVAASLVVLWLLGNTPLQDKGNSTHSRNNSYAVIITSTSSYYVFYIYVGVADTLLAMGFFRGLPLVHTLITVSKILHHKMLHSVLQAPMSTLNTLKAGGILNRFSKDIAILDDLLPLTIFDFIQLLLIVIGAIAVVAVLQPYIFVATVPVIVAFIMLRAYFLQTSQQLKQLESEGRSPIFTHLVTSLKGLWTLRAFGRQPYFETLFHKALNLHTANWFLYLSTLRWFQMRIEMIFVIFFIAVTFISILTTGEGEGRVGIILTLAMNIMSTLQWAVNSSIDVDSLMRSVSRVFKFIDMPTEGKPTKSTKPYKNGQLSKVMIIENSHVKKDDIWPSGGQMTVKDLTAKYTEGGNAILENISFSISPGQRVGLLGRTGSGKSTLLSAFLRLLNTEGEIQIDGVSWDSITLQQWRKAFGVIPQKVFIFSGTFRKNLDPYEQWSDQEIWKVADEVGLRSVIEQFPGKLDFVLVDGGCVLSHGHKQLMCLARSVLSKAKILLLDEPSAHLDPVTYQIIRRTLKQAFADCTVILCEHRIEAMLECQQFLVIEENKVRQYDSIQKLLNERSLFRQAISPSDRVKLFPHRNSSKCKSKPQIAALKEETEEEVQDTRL
Nature of the assay: Fluorescence (HS-YFP) assay for CFTR activity, corrector assay. The conditions noted are these: CFBE41o- and FRT cells with stable expression of mutant CFTR, 24 h compound treatment. Type of assay: cell-based. The protocol:
Fluorescence Assay for CFTR Activity
Mutant CFTR activity was determined with the functional assay based on the halide-sensitive yellow fluorescent protein, HS-YFP (Galietta et al., FEBS Lett 499: 220-224, 2001). CFBE41o- and FRT cells with stable expression of mutant CFTR and HS-YFP were plated on clear-bottom 96-well black microplates (Code 3603, Corning Life Sciences) at a density of 50,000 cells/well and kept at 37° C. in 5% CO2 for 24 hours. For the corrector assay, cells were treated for further 24 hours with test compounds, vehicle (DMSO), or the positive control VX-809. After treatment, the culture medium was removed and cells in each well were stimulated for 30 min at 37° C. with 60 μL PBS (containing 137 mM NaCl, 2.7 mM KCl, 8.1 mM Na2HPO4, 1.5 mM KH2PO4, 1 mM CaCl2, and 0.5 mM MgCl2) plus forskolin (20 μM) and genistein (50 μM).
For determination of potentiator activity on G551D-CFTR or G1349D-CFTR, cells were directly stimulated with forskolin plus test compound without previous incubation at low temperature. At the time of assay, microplates carrying CFBE41o- or FRT cells were transferred to microplate readers (BMG Labtech) equipped with high-quality excitation (HQ500/20X: 500±10 nm) and emission (HQ535/30M: 535±15 nm) filters for YFP (Chroma Technology). The assay consisted of a continuous 14 s fluorescence reading with 2 s before and 12 s after injection of an iodide-containing solution (165 μL of a modified PBS containing I^− instead of Cl^−; final I^− concentration in the well: 100 mM). Data were normalized to the initial background-subtracted fluorescence. Enhanced CFTR activity, induced by correctors and/or potentiators, results in accelerated I^− influx that in turn causes faster HS-YFP quenching (Pedemonte et al., Mol Pharmacol 68:1736-1746, 2005; Pedemonte et al., J Clin Invest 115:2564-2571, […]). To determine fluorescence quenching rate associated with I^− influx, the […] 10 s of data for each well were fitted with an exponential function to extrapolate initial slope (dF/dt).
EC50 obtained are illustrated in table 1 wherein +: EC50>2 μM; ++: 1.0 μM<EC50<2 μM; +++: EC50<1 μM.
As to `CN(C(=O)c1cccc(-n2nc(C(F)(F)F)cc2OC2CCC(C(=O)O)CC2)c1)c1ccc2c(c1)OCO2` (mixture of isomers) [compound 215, 4-[2-[3-[1,3-benzodioxol-5-yl(methyl)carbamoyl]phenyl]-5-(trifluoromethyl)pyrazol-3-yl]oxycyclohexane carboxylic acid], the EC50 (usually the midpoint of the concentration-response curve) was less than 1 µM.

Regarding `Cc1nn(-c2cccc(C(=O)N(C)c3ccc4c(c3)OCO4)c2)c([C@H](O)c2ccccc2)c1Cl` (racemic) [compound 109, N-(1,3-benzodioxol-5-yl)-3-[4-chloro-5-[(rac)-hydroxy(phenyl)methyl]-3-methyl-pyrazol-1-yl]-N-methyl-benzamide], the EC50 was less than 1 µM.

`Cc1nn(-c2cccc(C(=O)N(C)c3ccc4c(c3)OCO4)c2)c([C@@H](C)O)c1Cl` (racemic) [compound 114, N-(1,3-benzodioxol-5-yl)-3-[4-chloro-5-[(rac)-1-hydroxyethyl]-3-methyl-pyrazol-1-yl]-N-methyl-benzamide]: the EC50 is more than 2 µM.

Turning to `CO[C@H](c1ccccc1)c1c(Cl)c(C)nn1-c1cccc(C(=O)N(C)c2ccc3c(c2)OCO3)c1` (racemic) [compound 117, N-(1,3-Benzodioxol-5-yl)-3-[4-chloro-5-[(rac)-methoxy (phenyl)methyl]-3-methyl-pyrazol-1-yl]-N-methyl-benzamide], the EC50 is less than 1 µM.

With `Cc1nn(-c2cccc(C(=O)Nc3ccc4c(c3)OCCO4)c2)c(C)c1Cl` [Int-002, 3-(4-Chloro-3,5-dimethyl-pyrazol-1-yl)-N-(2,3-dihydro-1,4-benzodioxin-6-yl)benzamide], the EC50 was more than 2 µM.

Take `Cc1nn(-c2cccc(C(=O)Nc3ccc4c(c3)OC(F)(F)C(F)(F)O4)c2)c(C)c1Cl` [Int-005, 3-(4-Chloro-3,5-dimethyl-pyrazol-1-yl)-N-(2,2,3,3-tetrafluoro-1,4-benzodioxin-6-yl)benzamide]: the EC50 is more than 2 µM.

Regarding `Cc1nn(-c2cccc(C(=O)Nc3ccc4c(c3)OC(F)(F)O4)c2)c(C)c1Cl` [Int-006, 3-(4-Chloro-3,5-dimethyl-pyrazol-1-yl)-N-(2,2-difluoro-1,3-benzodioxol-5-yl)benzamide], the EC50 was more than 2 µM.

Turning to `Cc1nn(-c2cccc(C(=O)Nc3ccc4c(c3)OCO4)c2)c(C)c1Cl` [Int-012, N-(1,3-Benzodioxol-5-yl)-3-(4-chloro-3,5-dimethyl-pyrazol-1-yl)benzamide], the 50% effective concentration (EC50) was more than 2 µM.

`COc1ccc(NC(=O)c2cccc(-n3nc(C)c(Cl)c3C)c2)cc1OC` [Int-013, 3-(4-Chloro-3,5-dimethyl-pyrazol-1-yl)-N-(3,4-dimethoxyphenyl)benzamide]: the EC50 is more than 2 µM.

For the molecule `Cc1nn(-c2cccc(C(=O)Nc3ccc4c(c3)NCCO4)c2)c(C)c1Cl` [Int-016, 3-(4-Chloro-3,5-dimethyl-pyrazol-1-yl)-N-(3,4-dihydro-2H-1,4-benzoxazin-6-yl)benzamide], the EC50 was more than 2 µM.

Turning to `Cc1nn(-c2cccc(C(=O)Nc3ccc4c(c3)OCCN4)c2)c(C)c1Cl` [Int-018, 3-(4-chloro-3,5-dimethyl-pyrazol-1-yl)-N-(3,4-dihydro-2H-1,4-benzoxazin-7-yl)benzamide], the EC50 was more than 2 µM.

On to `Cc1nn(-c2cccc(C(=O)Nc3cccc4c3OC(F)(F)O4)c2)c(C)c1Cl` [Int-022, 3-(4-Chloro-3,5-dimethyl-pyrazol-1-yl)-N-(2,2-difluoro-1,3-benzodioxol-4-yl)benzamide], for which the EC50 is 1 to 2 µM.

Turning to `Cc1nn(-c2cccc(C(=O)Nc3ccc4c(c3)CCCC4)c2)c(C)c1Cl` [Int-040], the EC50 was more than 2 µM.

For the molecule `Cc1cc2c(cc1NC(=O)c1cccc(-n3nc(C)c(Cl)c3C)c1)OCO2` [Int-041, 3-(4-Chloro-3,5-dimethyl-pyrazol-1-yl)-N-(6-methyl-1,3-benzodioxol-5-yl)benzamide], the EC50 was more than 2 µM.

As for `Cc1nc2ccc(NC(=O)c3cccc(-n4nc(C)c(Cl)c4C)c3)cc2o1` [Int-045, 3-(4-Chloro-3,5-dimethyl-pyrazol-1-yl)-N-(2-methyl-1,3-benzoxazol-6-yl)benzamide], the EC50 is more than 2 µM.

As for `Cc1nn(-c2cccc(C(=O)Nc3ccc4c(c3)COC4)c2)c(C)c1Cl` [Int-051], the EC50 is more than 2 µM.

`Cc1nn(-c2cccc(C(=O)Nc3ccc4c(c3)CCO4)c2)c(C)c1Cl` [Int-052]: the EC50 was more than 2 µM.

On to `Cc1nn(-c2cccc(C(=O)Nc3ccc4oc(C5CC5)nc4c3)c2)c(C)c1Cl` [Int-053, 3-(4-Chloro-3,5-dimethyl-pyrazol-1-yl)-N-(2-cyclopropyl-1,3-benzoxazol-5-yl)benzamide], for which the EC50 was more than 2 µM.

For the molecule `Cc1nn(-c2cccc(C(=O)Nc3ccc4oc(C(C)C)nc4c3)c2)c(C)c1Cl` [Int-061, 3-(4-Chloro-3,5-dimethyl-pyrazol-1-yl)-N-(2-isopropyl-1,3-benzoxazol-5-yl)benzamide], the EC50 was more than 2 µM.

Take `COc1nc2cc(NC(=O)c3cccc(-n4nc(C)c(Cl)c4C)c3)ccc2o1` [Int-063, 3-(4-Chloro-3,5-dimethyl-pyrazol-1-yl)-N-(2-methoxy-1,3-benzoxazol-5-yl)benzamide]: the EC50 is more than 2 µM.

In the case of `Cc1c(Cl)c(C(F)(F)F)nn1-c1cccc(C(=O)Nc2ccc3cn(C)nc3c2)c1` [Int-121, 3-[4-Chloro-5-methyl-3-(trifluoromethyl)pyrazol-1-yl]-N-(2-methylindazol-6-yl)benzamide], the EC50 is more than 2 µM.

Consider `Cc1nc2ccc(NC(=O)c3cccc(-n4nc(C(F)(F)F)c(Cl)c4C4CC4)c3)cc2o1` [Int-136, 3-[4-Chloro-5-cyclopropyl-3-(trifluoromethyl)pyrazol-1-yl]-N-(2-methyl-1,3-benzoxazol-6-yl)benzamide], for which the EC50 was less than 1 µM.

Consider `Cc1nc2ccc(NC(=O)c3cccc(-n4nc(C(F)(F)F)c(Cl)c4C)c3)cc2s1` [Int-148, 3-[4-Chloro-5-methyl-3-(trifluoromethyl)pyrazol-1-yl]-N-(2-methyl-1,3-benzothiazol-6-yl)benzamide], for which the EC50 was less than 1 µM.

Turning to `Cc1nc2cc(F)c(NC(=O)c3cccc(-n4nc(C(F)(F)F)c(Cl)c4C)c3)cc2o1` [Int-153, 3-[4-Chloro-5-methyl-3-(trifluoromethyl)pyrazol-1-yl]-N-(5-fluoro-2-methyl-1,3-benzoxazol-6-yl)benzamide], the EC50 is less than 1 µM.

Consider `Cc1c(Cl)c(C(F)(F)F)nn1-c1cccc(C(=O)Nc2cc3c(cc2C=O)OCO3)c1` [Int-160, 3-[4-chloro-5-methyl-3-(trifluoromethyl)pyrazol-1-yl]-N-(6-formyl-1,3-benzodioxol-5-yl)benzamide], for which the EC50 was more than 2 µM.

Take `Cc1c(Cl)c(C(F)(F)F)nn1-c1cccc(C(=O)Nc2cc3c(cc2CO)OCO3)c1` [Int-167, 3-[4-chloro-5-methyl-3-(trifluoromethyl)pyrazol-1-yl]-N-[6-(hydroxymethyl)-1,3-benzodioxol-5-yl]benzamide]: the EC50 is less than 1 µM.

In the case of `CC(C)(C)OC(=O)c1ccc(OCc2c(Cl)c(C(F)(F)F)nn2-c2cccc(C(=O)Nc3ccc4c(c3)OC(F)(F)O4)c2)cc1` [Int-172, Tert-butyl 4-[[4-chloro-2-[3-[(2,2-difluoro-1,3-benzodioxol-5-yl)carbamoyl]phenyl]-5-(trifluoromethyl)pyrazol-3-yl]methoxy]benzoate], the concentration for a half-maximal effect (EC50) is more than 2 µM.

As for `Cc1c(Cl)c(C(F)(F)F)nn1-c1cccc(C(=O)Nc2cc3c(cc2C(=O)O)OCO3)c1` [Int-178, 6-[[3-[4-chloro-5-methyl-3-(trifluoromethyl)pyrazol-1-yl]benzoyl]amino]-1,3-benzodioxole-5-carboxylic acid], the EC50 was more than 2 µM.

`Cc1c(Cl)c(C(F)(F)F)nn1-c1cccc(C(=O)Nc2ccc3c(c2C=O)OCO3)c1` [Int-203, 3-[4-chloro-5-methyl-3-(trifluoromethyl)pyrazol-1-yl]-N-(4-formyl-1,3-benzodioxol-5-yl)benzamide]: the EC50 is more than 2 µM.

On to `Cc1nn(-c2cccc(C(=O)N(c3ccc4c(c3)OCCO4)C(C)C)c2)c(C)c1Cl` [compound 003, 3-(4-Chloro-3,5-dimethyl-pyrazol-1-yl)-N-(2,3-dihydro-1,4-benzodioxin-6-yl)-N-isopropyl-benzamide], for which the EC50 was more than 2 µM.

Take `CCN(C(=O)c1cccc(-n2nc(C)c(Cl)c2C)c1)c1ccc2c(c1)OCCO2` [compound 004, 3-(4-Chloro-3,5-dimethyl-pyrazol-1-yl)-N-(2,3-dihydro-1,4-benzodioxin-6-yl)-N-ethyl-benzamide]: the EC50 was less than 1 µM.

Take `Cc1nn(-c2cccc(C(=O)N(C)c3ccccc3)c2)c(C)c1Cl` [compound 007, 3-(4-Chloro-3,5-dimethyl-pyrazol-1-yl)-N-methyl-N-phenyl-benzamide]: the EC50 is more than 2 µM.
